Assay results published in US6610675B1 (priority 1980, dated 2003).
Each block holds one compound with its values, some of them ahead of it.

Experiments:
[1] = test system: granulation tissue formation caused by implantation of cotton pellets; experiment: Granuloma formation test (local cotton pellet granuloma assay); type: in vivo, rat; conditions: for Body wt. gain / Granulation tissue Dry wt. / Granulation tissue Dry wt. Inhibition / Granulation tissue Wet wt. / Granulation tissue Wet wt. Inhibition / Thymus wt. / Thymus wt. (Decrease %): Table V-a; for ED50: dose causing 50% inhibition of granulation tissue weight; for ED60: dose causing 60% inhibition of granulation tissue weight
Description: The test compound was dissolved in acetone and aliquots of varying concentrations were injected into cotton pellets. The pellets were dried and then one pellet was implanted beneath the skin of each test rat. Six days later, the animals were sacrificed and the granulation tissue (granuloma) which formed in and around the implanted pellet was removed, dried and weighed. In addition, the thymi and adrenals were removed and weighed.

thymus weight in rats = experiment: Thymus inhibition testing (subcutaneous administration); type: in vivo, rat
Description: Several further studies were undertaken to determine the effects of selected compounds of the invention on thymi weights in rats when the drugs were systemically administered. In each of these studies, male Sprague-Dawley rats were used. […] On the fifth day (48 hours following the last treatment), the animals were sacrificed and the thymi weights were recorded. […] It is evident that the higher the inhibition of thymus activity at a given dose, the more toxic the compound is.

[2] = rat, in vivo, sc, 0.003 mg/kg/day
[3] = rat, in vivo, sc, 0.01 mg/kg/day
[4] = rat, in vivo, sc, 0.03 mg/kg/day
[5] = rat, in vivo, sc, 0.1 mg/kg/day
[6] = rat, in vivo, sc, 0.3 mg/kg/day
[7] = chloromethyl 11β-hydroxy-17α-isopropoxycarbonyloxyandrost-4-en-3-one-17β-carboxylate = 1
[8] = Table VIII, 10 mg/kg/day s.c., three days

Body wt. gain ([1]; 1 μg/pellet): 33.0 ± 1.2 g
Thymus wt. ([1]; 1 μg/pellet): 478 ± 22 mg
Thymus wt. (Decrease %) ([1]; 1 μg/pellet): (3.4) %
Body wt. gain ([1]; 3 μg/pellet): 24.9 ± 1.8 g
Thymus wt. ([1]; 3 μg/pellet): 449 ± 21 mg
Thymus wt. (Decrease %) ([1]; 3 μg/pellet): (9.3) %
Body wt. gain ([1]; 10 μg/pellet): 25.0 ± 2.1 g
Thymus wt. ([1]; 10 μg/pellet): 322 ± 22 mg
Thymus wt. (Decrease %) ([1]; 10 μg/pellet): (34.9) %
Body wt. gain ([1]; 30 μg/pellet): 24.8 ± 1.1 g
Thymus wt. ([1]; 30 μg/pellet): 174 ± 26 mg
Thymus wt. (Decrease %) ([1]; 30 μg/pellet): (64.8) %
Body wt. gain ([1]; 100 μg/pellet): 15.9 ± 1.0 g
Thymus wt. ([1]; 100 μg/pellet): 84 ± 3 mg
Thymus wt. (Decrease %) ([1]; 100 μg/pellet): (83.0) %
Relative Potency (TED40) (thymus weight in rats; rat, in vivo): 8.6
Relative Potency (TED50) (thymus weight in rats; rat, in vivo): 11.2
TED40 (thymus weight in rats; rat, in vivo, sc): 0.035 mg
TED50 (thymus weight in rats; rat, in vivo, sc): 0.052 mg
Thymus wt. (thymus weight in rats; [2]): 537 ± 28 mg
Thymus wt. Inhibition (thymus weight in rats; [2]): 2.4%
Thymus wt. (thymus weight in rats; [3]): 498 ± 15 mg
Thymus wt. Inhibition (thymus weight in rats; [3]): 9.5%
Thymus wt. (thymus weight in rats; [4]): 363 ± 22 mg
Thymus wt. Inhibition (thymus weight in rats; [4]): 34.0%
Thymus wt. (thymus weight in rats; [5]): 149 ± 9 mg
Thymus wt. Inhibition (thymus weight in rats; [5]): 72.9%
Thymus wt. (thymus weight in rats; [6]): 63 ± 3 mg
Thymus wt. Inhibition (thymus weight in rats; [6]): 88.5%
Structure (SMILES): CCC(=O)O[C@]1(C(=O)CCl)[C@@H](C)C[C@H]2[C@@H]3CCC4=CC(=O)C=C[C@]4(C)[C@@]3(F)[C@@H](O)C[C@@]21C [Clobetasol 17-propionate, reference compound]
Granulation tissue Dry wt. ([1]; 1 μg/pellet): 42.0 ± 5.8 mg
Granulation tissue Dry wt. Inhibition ([1]; 1 μg/pellet): 47.6%
Granulation tissue Wet wt. ([1]; 1 μg/pellet): 401 ± 29 mg
Granulation tissue Wet wt. Inhibition ([1]; 1 μg/pellet): 23.6%
Granulation tissue Dry wt. ([1]; 3 μg/pellet): 43.1 ± 8.9 mg
Granulation tissue Dry wt. Inhibition ([1]; 3 μg/pellet): 46.2%
Granulation tissue Wet wt. ([1]; 3 μg/pellet): 402 ± 40 mg
Granulation tissue Wet wt. Inhibition ([1]; 3 μg/pellet): 23.4%
Granulation tissue Dry wt. ([1]; 10 μg/pellet): 37.9 ± 6.8 mg
Granulation tissue Dry wt. Inhibition ([1]; 10 μg/pellet): 52.7%
Granulation tissue Wet wt. ([1]; 10 μg/pellet): 364 ± 25 mg
Granulation tissue Wet wt. Inhibition ([1]; 10 μg/pellet): 30.7%
Granulation tissue Dry wt. ([1]; 30 μg/pellet): 25.5 ± 2.1 mg
Granulation tissue Dry wt. Inhibition ([1]; 30 μg/pellet): 68.2%
Granulation tissue Wet wt. ([1]; 30 μg/pellet): 320 ± 10 mg
Granulation tissue Wet wt. Inhibition ([1]; 30 μg/pellet): 39.0%
Granulation tissue Dry wt. ([1]; 100 μg/pellet): 23.9 ± 3.3 mg
Granulation tissue Dry wt. Inhibition ([1]; 100 μg/pellet): 70.2%
Granulation tissue Wet wt. ([1]; 100 μg/pellet): 325 ± 12 mg
Granulation tissue Wet wt. Inhibition ([1]; 100 μg/pellet): 38.1%
ED50 [1]: >3 μg/pellet
ED60 [1]: >10 μg/pellet
Body weight gain (thymus weight in rats; [2]): 18.3 ± 0.6 g
Body weight gain (thymus weight in rats; [3]): 15.5 ± 1.1 g
Body weight gain (thymus weight in rats; [4]): 12.3 ± 1.3 g
Body weight gain (thymus weight in rats; [5]): -0.4 ± 1.3 g
Body weight gain (thymus weight in rats; [6]): -14.3 ± 1.3 g

Structure (SMILES): CCCOC(=O)O[C@]1(C(=O)OCCl)[C@H](C)C[C@H]2[C@@H]3CCC4=CC(=O)C=C[C@]4(C)[C@@]3(F)[C@@H](O)C[C@@]21C [chloromethyl 9α-fluoro-11β-hydroxy-16α-methyl-17α-propoxycarbonyloxyandrosta-1,4-dien-3-one-17β-carboxylate]
Body wt. gain ([1]; 0.3 μg/pellet): 35.6 ± 1.0 g
Granulation tissue Dry wt. ([1]; 0.3 μg/pellet): 55.1 ± 6.2 mg
Granulation tissue Dry wt. Inhibition ([1]; 0.3 μg/pellet): 31.2%
Granulation tissue Wet wt. ([1]; 0.3 μg/pellet): 454 ± 27 mg
Granulation tissue Wet wt. Inhibition ([1]; 0.3 μg/pellet): 13.5%
Thymus wt. ([1]; 0.3 μg/pellet): 523 ± 28 mg
Body wt. gain ([1]; 1 μg/pellet): 31.9 ± 0.8 g
Granulation tissue Dry wt. ([1]; 1 μg/pellet): 42.9 ± 5.1 mg
Granulation tissue Dry wt. Inhibition ([1]; 1 μg/pellet): 46.4%
Granulation tissue Wet wt. ([1]; 1 μg/pellet): 415 ± 30 mg
Granulation tissue Wet wt. Inhibition ([1]; 1 μg/pellet): 21.0%
Thymus wt. ([1]; 1 μg/pellet): 453 ± 21 mg
Body wt. gain ([1]; 3 μg/pellet): 34.1 ± 1.9 g
Granulation tissue Dry wt. ([1]; 3 μg/pellet): 29.7 ± 3.2 mg
Granulation tissue Dry wt. Inhibition ([1]; 3 μg/pellet): 62.9%
Granulation tissue Wet wt. ([1]; 3 μg/pellet): 360 ± 18 mg
Granulation tissue Wet wt. Inhibition ([1]; 3 μg/pellet): 31.4%
Thymus wt. ([1]; 3 μg/pellet): 504 ± 42 mg
Body wt. gain ([1]; 10 μg/pellet): 33.1 ± 1.6 g
Granulation tissue Dry wt. ([1]; 10 μg/pellet): 28.5 ± 2.8 mg
Granulation tissue Dry wt. Inhibition ([1]; 10 μg/pellet): 64.4%
Granulation tissue Wet wt. ([1]; 10 μg/pellet): 350 ± 13 mg
Granulation tissue Wet wt. Inhibition ([1]; 10 μg/pellet): 33.3%
Thymus wt. ([1]; 10 μg/pellet): 547 ± 26 mg
Relative potency (ED40) [1, 7]: 529
Relative potency (ED60) [1, 7]: 277
ED40 ([1]; dose causing 40% inhibition of granulation tissue weight): 0.58 μg/pellet
ED50 [1]: 1.20 μg/pellet
ED60 [1]: 2.49 μg/pellet
Body weight gain (thymus weight in rats; [8]): 2.7 ± 1.7 g
Thymus wt. (thymus weight in rats; [8]): 277 ± 25 mg
Thymus wt. Inhibition (thymus weight in rats; [8]): 49.6%

Structure (SMILES): CC(C)OC(=O)O[C@]1(C(=O)OCCl)[C@H](C)C[C@H]2[C@@H]3CCC4=CC(=O)C=C[C@]4(C)[C@@]3(F)[C@@H](O)C[C@@]21C [chloromethyl 9α-fluoro-11β-hydroxy-17α-isopropoxycarbonyloxy-16α-methylandrosta-1,4-dien-3-one-17β-carboxylate]
Body weight gain (thymus weight in rats; [8]): 2.7 ± 1.9 g
Thymus wt. (thymus weight in rats; [8]): 234 ± 31 mg
Thymus wt. Inhibition (thymus weight in rats; [8]): 57.5%
